Measured values taken from the supplement of paper PMC10307832.

Experiments:
Assay in all cases: relative viability (nuclei count vs DMSO), 5 days (fraction); higher = more cells survive
[1] = compound: CS(=O)(=O)c1ccc(-c2cnc(N)c(C(=O)Nc3ccccc3)n2)cc1 [VE-821] + CC(=O)Nc1cccc(-n2c(=O)n(C3CC3)c(=O)c3c(Nc4ccc(I)cc4F)n(C)c(=O)c(C)c32)c1 [Trametinib] (partner 0.02 µM)
How it was run: (§1)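 Relative viability is defined as nuclei in treated wells over nuclei in vehicle wells. Duplicate plates were run and medians reported. Lung cancer cell lines in 1536-well plates were dosed by pin tool one day after seeding, with one drug or with a fixed anchor-drug dose plus five library-drug doses (not always all listed) in √10 steps, and nuclei were counted after 5 days.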

[2] = compound: CS(=O)(=O)c1ccc(-c2cnc(N)c(C(=O)Nc3ccccc3)n2)cc1 [VE-821] + C[C@@H](Oc1cc(-c2cnn(C3CCNCC3)c2)cnc1N)c1c(Cl)ccc(F)c1Cl [Crizotinib] (partner 1 µM)
How it was run: as §1

[3] = compound: CS(=O)(=O)c1ccc(C(=O)Nc2ccc(Cl)c(-c3ccccn3)c2)c(Cl)c1 [Vismodegib] + CS(=O)(=O)N1CCN(Cc2cc3nc(-c4cccc5[nH]ncc45)nc(N4CCOCC4)c3s2)CC1 [Pictilisib] (partner 1 µM)
How it was run: as §1

[4] = compound: CS(=O)(=O)c1ccc(C(=O)Nc2ccc(Cl)c(-c3ccccn3)c2)c(Cl)c1 [Vismodegib] + O=C(c1cc(Cc2n[nH]c(=O)c3ccccc23)ccc1F)N1CCN(C(=O)C2CC2)CC1 [Olaparib] (partner 8 µM)
How it was run: as §1

Cell Line	relative viability ([1]; first compound 0.08 µM)	relative viability ([1]; first compound 0.253 µM)	relative viability ([1]; first compound 0.8 µM)	relative viability ([1]; first compound 2.53 µM)	relative viability ([1]; first compound 8 µM)	relative viability ([2]; first compound 0.08 µM)	relative viability ([2]; first compound 0.253 µM)	relative viability ([2]; first compound 2.53 µM)	relative viability ([2]; first compound 8 µM)	relative viability ([3]; first compound 0.08 µM)	relative viability ([3]; first compound 0.253 µM)	relative viability ([3]; first compound 0.8 µM)	relative viability ([3]; first compound 2.53 µM)	relative viability ([3]; first compound 8 µM)	relative viability ([4]; first compound 0.08 µM)	relative viability ([4]; first compound 0.253 µM)	relative viability ([4]; first compound 0.8 µM)	relative viability ([4]; first compound 2.53 µM)	relative viability ([4]; first compound 8 µM)	relative viability ([2]; first compound 0.8 µM)
NCI-H520	0.752	0.744	0.654	0.752	0.44	0.967	0.826	0.867	0.503	0.332	0.254	0.271	0.274	0.309	0.314	0.366	0.397	0.281	0.354	
NCI-H1355	0.53	0.424	0.349	0.429	0.381	1.22	1.11	1.04	0.768	0.391	0.508	0.31	0.432	0.448	0.721	0.716	0.781	0.807	0.722	0.993
NCI-H1563						1.02	0.781	0.694	0.695	0.649	0.591	0.647	0.643	0.72						0.751
NCI-H1651	0.876	0.799	0.733	0.808	0.821	0.844	0.914	0.837	0.872	0.579	0.549	0.523	0.54	0.637	0.176	0.192	0.188	0.182	0.204	0.853
HCC-44	1.11	1.03	1.12	1.13	0.961	0.846	0.779	1.03	0.923	0.611	0.657	0.546	0.474	0.668	0.945	0.919	0.981	1.01	0.962	0.847
NCI-H1437	0.533	0.445	0.498	0.566	0.376	1.1	0.906	1.01	0.823	0.504	0.487	0.47	0.536	0.483	0.633	0.607	0.653	0.63	0.598	0.864
201T	0.743	0.721	0.725	0.734	0.693	1.04	1.03	1.08	0.979	0.712	0.67	0.641	0.673	0.66	0.826	0.875	0.798	0.845	0.822	1.02
LCLC-103H	0.748	0.662	0.675	0.68	0.663	1.08	1	1.08	1.1	0.606	0.533	0.574	0.633	0.646	0.759	0.757	0.73	0.733	0.832	0.998
NCI-H1915	0.331	0.288	0.281	0.349	0.303	0.892	0.856	0.874	0.846	0.997	1.01	0.851	0.826	0.727	0.276	0.256	0.244	0.273	0.232	0.883
NCI-H2085	0.507	0.463	0.269		0.364	1.02	0.755	0.954	0.755	0.418	0.447	0.377	0.444	0.417	0.724	0.816	0.775	0.74	0.712	0.824
NCI-H2228	0.51	0.645	0.354	0.644	0.382	0.479	0.459	0.37	0.35	0.493	0.538	0.359	0.413	0.347	0.596	0.796	0.56	0.502	0.477	0.414
EKVX	0.347	0.317	0.298	0.376	0.3	1.25	0.93	0.958	0.878	0.47	0.462	0.391	0.355	0.395		0.737	0.818	0.778	0.866	0.849
COR-L23	0.658	0.658	0.587	0.759	0.535	0.731	0.76	0.726	0.562	0.803	0.658	0.714	0.675	0.786	0.35	0.339	0.337	0.281	0.317	0.695
SK-MES-1	0.609	0.516	0.462	0.471	0.455	1.07	0.93	0.95	0.896	0.358	0.348	0.363	0.348	0.344	0.701	0.656	0.62	0.707	0.685	0.924
